The results in this text go back to ChEMBL document CHEMBL1268826, “Discovery of the inhibitors of tumor necrosis factor alpha with structure-based virtual screening” (Bioorg Med Chem Lett, 2010).

The assay deals with T1, Tumor necrosis factor (Mus musculus) (UniProt P06804).
T1 sequence (whole entry): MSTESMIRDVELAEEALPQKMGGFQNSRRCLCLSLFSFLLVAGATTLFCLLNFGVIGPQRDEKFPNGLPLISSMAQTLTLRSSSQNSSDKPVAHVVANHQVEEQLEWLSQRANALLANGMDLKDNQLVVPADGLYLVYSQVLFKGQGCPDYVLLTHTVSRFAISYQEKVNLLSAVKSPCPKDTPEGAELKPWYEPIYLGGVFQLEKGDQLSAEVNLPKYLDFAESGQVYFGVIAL
Put plainly: Inhibition of TNFalpha in LPS-stimulated mouse RAW264.7 cells at 10 uM after 2 hrs treated after 14 hrs of LPS challenge by FACS analysis. It counts as cell-based. (Flow cytometry measures light scatter and fluorescence of single cells or particles in a stream.)

The inhibition is the share of the control response that was lost under treatment. Read a low inhibition as little suppression. As to `c1ccc(-n2ncc3c(NCCN4CCCCC4)ncnc32)cc1`, the inhibition came to 45.8%.
The compound `O=c1cc(-c2ccccc2)oc2cc(O)c(O)c(O)c12` registered an inhibition of 71.3%.
Compound `Cc1cccc(N2C(=O)NC(=O)/C(=C/c3ccc(-c4ccc(C(=O)O)c(Cl)c4)o3)C2=O)c1` registered an inhibition of 64%.
`O=C1NC(=O)N(c2ccc3c(c2)OCO3)C(=O)/C1=C\c1cn(Cc2ccccc2Cl)c2ccccc12`: the inhibition came to 54.6%.
The same measure for `O=C1NC(=O)N(c2ccccc2)C(=O)/C1=C\c1ccccc1OCc1ccccc1Cl`: 47.9%; for `NC(=O)c1cc(-c2csc(C3COc4ccccc4O3)n2)ccc1OCc1ccccc1` (stereo unspecified): 52.6%.
